Measured values taken from patent publication US20250243219A1, “MACROCYCLIC COMPOUNDS AND USES THEREOF” (Cypralis Limited, priority 2022, published 2025).

Key:
cyclophilin D = cyclophilin D (Homo sapiens (Human), UniProt P30405); assay: Functional peptidyl prolyl isomerase (PPIase) spectrophotometric assay, cyclophilin D; type: biochemical; settings: second value of CypA/D cell; read-out: Ki CypD
Description: (§1) Cyclophilins are enzymes that catalyse the cis-trans isomerisation of peptide bonds to the amino acid proline. This event is important in many biological processes, including protein folding and signal transduction. […] The method to measure this activity and its inhibition is similar to that described by Jankowski (Analytical Biochemistry, 252, 2, 299-307 (1997)). The assay measures the cis to trans isomerisation of a peptide substrate catalysed by a PPlase enzyme using a UV/Vis spectrophotometer. This assay is a manual single cuvette-based assay. A first order rate equation is fitted to the absorbance data to obtain a rate constant. The catalytic rate is calculated from the enzymatic rate minus the background rate. The Ki (the concentration required to produce half maximum inhibition) for an inhibitor is obtained from the rate constant plotted against the inhibitor concentration. Typically, a 6-point dose response curve is obtained from duplicates and a Ki determined. Data are given in Table 5 as Ki [nM] for cyclophilins A and D, expressed in column 2 of Table 5 as Ki (cypA)/Ki (cypD).

[1] = tested on: permeabilised HepG2 cells; assay: Calcium retention capacity (CRC) assay in permeabilised HepG2 cells (MPTP opening); type: cell-based, human; set-up: CRC [10 μM]: unit not given here; settings: compound at 10 μM; for CRC [10 μM]: digitonin permeabilised HepG2 cells; for CRC [10 μM] (ratio vs CsA): normalised to cyclosporin A, value in brackets
Description: The use of permeabilised cells means that inhibitory compounds that may not normally enter non-permeabilised cells are more likely to be active.
The calcium retention capacity (CRC) is a measure of the capability of mitochondria to retain calcium, primarily in the form of calcium phosphates, in the mitochondrial matrix.
In a CRC assay, the calcium indicator Calcium Green-5N (InVitrogen) is utilized. […] The assay is carried out in HepG2 (human hepatocellular carcinoma) cells which are digitonin permeabilized. Trains of calcium pulses (typically 5 μM additions) are added which results in a sudden increase in fluorescence which is then reduced by mitochondrial buffering. The cells will reach a point at which the calcium addition is no longer buffered, an indication that the MPTP has opened (mitochondrial permeability transition).
The experiment is performed with and without inhibitor. A compound that acts to inhibit the mitochondrial pore opening will result in a greater requirement for calcium to reach the transition point. The results are normalised to a positive control (cyclosporin A) in each experiment. The results are shown in column 3 of Table 5 as CRC [10 μM] (ratio vs CsA). The method of digitonin permeabilised whole cell CRC assay is similar to that used by Chiara et al. (PLoS One, March, 3, 3, e1852 (2008)).

cyclophilin A = cyclophilin A (Homo sapiens (Human), UniProt P62937); assay: Functional peptidyl prolyl isomerase (PPIase) spectrophotometric assay, cyclophilin A; type: biochemical; settings: first value of CypA/D cell
Description: as §1

SH-SY5Y cells = assay: Thapsigargin treated cell death assay in SH-SY5Y cells; type: cell-based, human; settings: compound at 10 μM, positive = protection from cell death, negative = compound toxicity
Description: Thapsigargin raises intracellular free calcium (Ca^2+) by potently inhibiting the endoplasmic reticulum Ca-ATPase, which sequesters Ca^2+ from the cytosol. The increased cytosolic Ca^2+ concentration is buffered by mitochondria by exchanging Ca^2+ for K, leading to depolarisation in the inner mitochondrial membrane and permeability transition.
The thapsigargin treated Jurkat cell death assay is a homogeneous 96 well plate based assay for cell death, instigated by the opening of the mitochondrial permeability transition pore (MPTP). The addition of thapsigargin to Jurkat cells results in an influx of calcium, the increase in intracellular calcium will initially be buffered by the mitochondria, but eventually the increasing calcium concentration will result in the opening of the MPTP, resulting in cell death.
CellTox™ Green is a dye which is unable to enter the cell until cell death leads to the loss of membrane integrity. Once this happens the CellTox™ Green enters the cell, binds to the cell's DNA and emits a fluorescent signal. […] Unless otherwise stated, the assay is typically run using a range of three compound concentrations of 1, 3 and 10 μM in triplicate and is read kinetically over a period of 24 hours. Compounds are added 30 minutes before the addition of thapsigargin. Compound only controls and positive control, cyclosporin A (CsA) (3 and 10 μM) are also included in the assay. Results are typically calculated at the 8 hour time point and the kinetic data is also reported.
The assay is carried out as described for the Jurkat cells but using the SH-SY5Y (human neuroblastoma) cell line instead of Jurkat cells. The results are shown in the fourth column of Table 5 (SY5Y [10 μM]% recovery). Positive numbers indicate protection from cell death, negative numbers indicate compound toxicity.

Sequence of cyclophilin A (P62937 whole entry, species assumed): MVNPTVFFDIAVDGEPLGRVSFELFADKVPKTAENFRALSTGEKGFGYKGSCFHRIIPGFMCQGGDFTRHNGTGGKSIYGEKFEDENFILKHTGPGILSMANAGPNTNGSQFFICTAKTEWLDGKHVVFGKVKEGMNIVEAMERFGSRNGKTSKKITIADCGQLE
Sequence of cyclophilin D (P30405 30-207, species assumed): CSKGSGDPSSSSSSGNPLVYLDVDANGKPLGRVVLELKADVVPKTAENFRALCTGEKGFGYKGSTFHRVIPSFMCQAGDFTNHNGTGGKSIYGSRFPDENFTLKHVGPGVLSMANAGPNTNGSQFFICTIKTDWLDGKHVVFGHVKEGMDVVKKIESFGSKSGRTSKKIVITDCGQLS

Ki (cyclophilin D) [nM] | Ki (cyclophilin A) [nM] | SMILES | CRC [10 μM] [1] | CRC [10 μM] (ratio vs CsA) ([1]; listed as 32) | SYSY [10 μM] % recovery (SH-SY5Y cells; listed as 51) [%] | SYSY [10 μM] % recovery (SH-SY5Y cells; listed as 52) [%] | CRC [10 μM] (ratio vs CsA) [1]
4900 | 2200 | C[C@@H]1NC(=O)[C@@H](CC2CCCNC2)OC(=O)C(C)(C)/C=C/c2ccc3ccc(nc3c2)N(C)N(C)C(=O)[C@@H]2CCCN(N2)C1=O (single isomer, unassigned) [Compound (32)] | 5 | 0.20 | – | – | –
– | – | C[C@@H]1NC(=O)C(Cc2cccc(N)n2)OC(=O)C(C)(C)/C=C/c2ccc3ccc(nc3c2)N(C)NC(=O)[C@@H]2CCCN(N2)C1=O (single isomer, unassigned) [Compound (51)] | – | – | 37 | – | –
– | – | C[C@@H]1NC(=O)C(Cc2cccc(N)n2)OC(=O)C(C)(C)/C=C/c2ccc3ccc(nc3c2)N(C)NC(=O)[C@@H]2CCCN(N2)C1=O (single isomer, unassigned) [Compound (52)] | – | – | – | 35 | –
1300 | 550 | CC(C)[C@H]1OC(=O)C(C)(C)/C=C/c2ccc3ccc(nc3c2)N(C)NC(=O)[C@@H]2CCCN(N2)C(=O)[C@H](C)NC1=O [Compound (3)] | – | – | – | – | 0.5
13 | 3.3 | CC(C)[C@@H]1OC(=O)C(C)(C)/C=C/c2ccc3ncc(nc3c2)N(C)NC(=O)[C@@H]2CCCN(N2)C(=O)[C@H](C)NC1=O [Compound (4)] | 16.4 | – | – | – | –
> 10 | > 10000 | CC(C)[C@@H]1OC(=O)C(C)(C)CCc2ccc3ccc(nc3c2)N(C)NC(=O)[C@@H]2CCCN(N2)C(=O)[C@H](C)NC1=O [Compound (5)] | – | – | – | – | –
8.1 | 36.7 | CC(C)[C@@H]1OC(=O)C(C)(C)/C=C/c2ccc3ccc(nc3c2)N(CCCO)NC(=O)[C@@H]2CCCN(N2)C(=O)[C@H](C)NC1=O [Compound (7)] | – | – | – | – | –
15 | 13.9 | CC(C)[C@@H]1OC(=O)C(C)(C)/C=C/c2ccc3ccc(nc3c2)N2CCCN2C(=O)[C@@H]2CCCN(N2)C(=O)[C@H](C)NC1=O [Compound (8)] | – | – | – | – | –
8.7 | 5.3 | CC(=O)N1NC(=O)[C@@H]2CCCN(N2)C(=O)[C@H](C)NC(=O)[C@H](C(C)C)OC(=O)C(C)(C)/C=C/c2ccc3ccc1nc3c2 [Compound (10)] | – | – | – | – | –
83 | 280 | C[C@@H]1NC(=O)[C@H](Cc2ccc(C(=O)O)cc2)OC(=O)C(C)(C)/C=C/c2ccc3ccc(nc3c2)N(C)N(C)C(=O)[C@@H]2CCCN(N2)C1=O [Compound (11)] | 20 | – | – | – | 0.80
9.9 | 1.7 | CC(C)C(=O)N1CCC2(/C=C/c3ccc4ccc(nc4c3)N(C)NC(=O)[C@@H]3CCCN(N3)C(=O)[C@H](C)NC(=O)[C@H](C(C)C)OC2=O)CC1 [Compound (15)] | 38 | – | – | – | 1
370 | 260 | CC(C)[C@@H]1OC(=O)C2(/C=C/c3ccc4ccc(nc4c3)N(C)NC(=O)[C@@H]3CCCN(N3)C(=O)[C@H](C)NC1=O)COCOC2 [Compound (18)] | 10 | – | – | – | 0.33
140 | 100 | CC(C)[C@@H]1NCC(C)(C)/C=C/c2ccc3ccc(nc3c2)N(C)NC(=O)[C@@H]2CCCN(N2)C(=O)[C@H](C)NC1=O [Compound (20)] | 22.5 | – | – | – | 0.57
260 | 92 | CC(C)[C@H]1C(=O)N[C@@H](C)C(=O)N2CCC[C@H](N2)C(=O)NN(C)c2ccc3ccc(cc3n2)/C=C/C(C)(C)CN1C [Compound (23)] | 12.5 | – | – | – | 0.38
12 | 19 | C[C@@H]1NC(=O)[C@H](C2CCCC2)CC(=O)C(C)(C)/C=C/c2ccc3ccc(nc3c2)N(C)NC(=O)[C@@H]2CCCN(N2)C1=O [Compound (24)] | – | – | – | – | –
– | 5900 | C[C@@H]1NC(=O)[C@@H](CC2CCCN(C)C2)OC(=O)C(C)(C)/C=C/c2ccc3ccc(nc3c2)N(C)NC(=O)[C@@H]2CCCN(N2)C1=O (stereo partly shown) [Compound (28)] | 5 | – | – | – | 0.17
170 | 51 | CC(=O)N1CCC[C@@H](C[C@@H]2OC(=O)C(C)(C)/C=C/c3ccc4ccc(nc4c3)N(C)NC(=O)[C@@H]3CCCN(N3)C(=O)[C@H](C)NC2=O)C1 [Compound (29)] | 20 | – | – | – | 0.67
5.8 | 1.2 | C[C@@H]1NC(=O)[C@H](Cc2ccc(O)cc2)OC(=O)C(C)(C)/C=C/c2ccc3ccc(nc3c2)N(C)NC(=O)[C@@H]2CCCN(N2)C1=O [Compound (42)] | 25 | – | – | – | 0.8
140 | 590 | C[C@@H]1NC(=O)[C@H](CN2CCCCC2)OC(=O)C(C)(C)/C=C/c2ccc3ccc(nc3c2)N(C)NC(=O)[C@@H]2CCCN(N2)C1=O [Compound (44)] | 5 | – | – | – | 0.33
140 | 61 | CC(C)C(=O)N1CCN(C[C@@H]2OC(=O)C(C)(C)/C=C/c3ccc4ccc(nc4c3)N(C)NC(=O)[C@@H]3CCCN(N3)C(=O)[C@H](C)NC2=O)C[C@@H]1C [Compound (45)] | 15 | – | – | – | 0.60
21 | 27 | CC(C)NC(=O)c1ccc(C[C@@H]2OC(=O)C(C)(C)/C=C/c3ccc4ccc(nc4c3)N(C)NC(=O)[C@@H]3CCCN(N3)C(=O)[C@H](C)NC2=O)cc1 [Compound (47)] | 17.5 | – | – | – | 1.00
54.5 | 80 | C[C@@H]1NC(=O)[C@H](CC2CCNCC2)OC(=O)C(C)(C)/C=C/c2ccc3ccc(nc3c2)N(C)NC(=O)[C@@H]2CCCN(N2)C1=O [Compound (58)] | 8.3 | – | – | – | 0.38
38 | 37 | C[C@@H]1NC(=O)[C@H](C2CCOCC2)OC(=O)C(C)(C)/C=C/c2ccc3ccc(nc3c2)N(C)NC(=O)[C@@H]2CCCN(N2)C1=O [Compound (59)] | 17.5 | – | – | – | 0.85
9.6 | 5.6 | CC(C)[C@@H]1OC(=O)C(C)(C)/C=C/c2ccc3ccc(nc3c2)N(C)NC(=O)[C@@H]2CCCN(N2)C(=O)[C@H](CCC(=O)O)NC1=O [Compound (62)] | – | – | – | – | –
700 | – | CC(C)[C@@H]1OC(=O)C(C)(C)/C=C/c2ccc3ccc(nc3c2)N(C)NC(=O)[C@@H]2CCCN(N2)C(=O)[C@@H](Cc2ccccc2)NC1=O [Compound (77)] | 15 | – | – | – | 0.39
360 | – | CC(C)[C@@H]1OC(=O)C(C)(C)/C=C/c2ccc3ccc(nc3c2)N(C)NC(=O)[C@@H]2CCCN(N2)C(=O)[C@H](Cc2ccncc2)NC1=O [Compound (78)] | >10,000 | – | – | – | –
150 | 320 | CC(C)[C@H]1CC(=O)C(C)(C)/C=C/c2ccc3ccc(nc3c2)N(C)NC(=O)[C@@H]2CCCN(N2)C(=O)[C@H](C)NC1=O [Compound (82)] | – | – | – | – | –
